These results are taken from paper PMC4021102, “The onset of grapevine berry ripening is characterized by ROS accumulation and lipoxygenase-mediated membrane peroxidation in the skin” (BMC Plant Biology, 2014).

This experiment addresses T1, PnLOXA (Vitis vinifera, UniProt D7SLA9).
T1 construct: gene VIT_06s0004g01510
To be noted: 0.1 mM substrate, pH 6.5, 25 °C; exclusively 13-product.

T1 sequence (D7SLA9 entry or part of it): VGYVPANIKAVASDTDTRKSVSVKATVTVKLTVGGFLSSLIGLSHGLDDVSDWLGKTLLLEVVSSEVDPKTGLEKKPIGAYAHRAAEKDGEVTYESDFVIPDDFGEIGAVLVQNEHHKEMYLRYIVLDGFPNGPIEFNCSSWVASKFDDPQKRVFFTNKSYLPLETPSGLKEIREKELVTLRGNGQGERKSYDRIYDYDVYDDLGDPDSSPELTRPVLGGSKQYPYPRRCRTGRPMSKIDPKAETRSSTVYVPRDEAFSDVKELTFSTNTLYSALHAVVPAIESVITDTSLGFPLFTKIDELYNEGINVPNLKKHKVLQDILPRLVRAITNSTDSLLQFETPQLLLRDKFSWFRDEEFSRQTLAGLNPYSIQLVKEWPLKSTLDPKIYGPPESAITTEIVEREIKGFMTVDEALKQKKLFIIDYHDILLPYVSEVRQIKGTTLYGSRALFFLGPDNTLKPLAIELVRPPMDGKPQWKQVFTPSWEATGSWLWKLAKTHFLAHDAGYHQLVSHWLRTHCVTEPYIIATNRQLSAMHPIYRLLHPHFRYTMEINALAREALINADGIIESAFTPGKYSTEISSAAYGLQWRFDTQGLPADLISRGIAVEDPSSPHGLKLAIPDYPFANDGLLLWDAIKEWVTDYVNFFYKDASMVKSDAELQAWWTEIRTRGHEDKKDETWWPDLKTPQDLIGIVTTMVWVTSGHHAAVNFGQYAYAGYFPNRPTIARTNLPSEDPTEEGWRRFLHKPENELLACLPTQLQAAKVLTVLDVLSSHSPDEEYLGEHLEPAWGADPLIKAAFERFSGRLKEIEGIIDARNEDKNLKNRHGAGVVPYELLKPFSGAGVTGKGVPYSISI

With `CC/C=C\C/C=C\C/C=C\CCCCCCCC(=O)O` [α-linolenic acid], the “peroxidation product identified by ESI-MS/MS” value is “PnLOXA catalyzed the regiospecific peroxidation of α-linolenic acid to produce exclusively 13-HOTrE”.
